From patent US20240308976A1, “COMPOUNDS THAT MEDIATE PROTEIN DEGRADATION AND USES THEREOF” (Monte Rosa Therapeutics, Inc., priority 2021, published 2024)

Key:
CRBN-DDB1 = CRBN-DDB1 (Homo sapiens, UniProt Q96SW2); test: Compound binding to CRBN by HTRF assay; conditions: CRBN-DDB1 2.5 nM, Cy5-Thalidomide 100 nM, 30 min at ambient temperature; read-out: HTRF Class (Cereblon binding, HTRF IC50)
In short: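 Cy5-thalidomide (100 nM) displacement from His-tagged CRBN-DDB1 (2.5 nM) read by terbium-cryptate HTRF (665/620 nm), in 20 mM HEPES, 20 mM NaCl, 0.2 mM TCEP, 0.2 mM EDTA, 0.005% Tween20. Compounds tested as 10-point 1:3 series, 30 min at ambient temperature. Signal normalised to DMSO and lenalidomide controls; IC50 fitted, Ki by Cheng-Prusoff.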

GSPT1 = target: T1, GSPT1 (Homo sapiens, UniProt P15170+Q96SW2); test: Immunofluorescence assay for activity to degrade GSPT1 in CAL-51 cells; format: cell-based; conditions: 6 h treatment, read-out: IF Class (GSPT1 degradation, DC50)
T1 construct: CAL-51 cells were purchased from DSMZ (cat. Number ACC302); host or cells: CAL-51
T1 sequence (P15170 whole entry): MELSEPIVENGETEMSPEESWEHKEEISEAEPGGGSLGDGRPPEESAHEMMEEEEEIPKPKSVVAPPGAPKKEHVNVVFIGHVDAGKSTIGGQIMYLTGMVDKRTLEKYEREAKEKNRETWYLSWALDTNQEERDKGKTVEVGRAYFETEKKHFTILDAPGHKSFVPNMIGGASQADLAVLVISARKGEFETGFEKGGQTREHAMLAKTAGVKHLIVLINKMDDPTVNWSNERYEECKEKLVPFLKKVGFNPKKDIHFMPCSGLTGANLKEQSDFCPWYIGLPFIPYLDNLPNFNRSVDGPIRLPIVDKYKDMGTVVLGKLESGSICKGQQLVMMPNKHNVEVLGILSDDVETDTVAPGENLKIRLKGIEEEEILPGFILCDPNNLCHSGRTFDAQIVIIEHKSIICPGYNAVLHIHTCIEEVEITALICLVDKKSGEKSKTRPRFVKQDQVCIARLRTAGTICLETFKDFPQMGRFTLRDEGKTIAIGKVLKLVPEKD
T1 sequence (Q96SW2 whole entry): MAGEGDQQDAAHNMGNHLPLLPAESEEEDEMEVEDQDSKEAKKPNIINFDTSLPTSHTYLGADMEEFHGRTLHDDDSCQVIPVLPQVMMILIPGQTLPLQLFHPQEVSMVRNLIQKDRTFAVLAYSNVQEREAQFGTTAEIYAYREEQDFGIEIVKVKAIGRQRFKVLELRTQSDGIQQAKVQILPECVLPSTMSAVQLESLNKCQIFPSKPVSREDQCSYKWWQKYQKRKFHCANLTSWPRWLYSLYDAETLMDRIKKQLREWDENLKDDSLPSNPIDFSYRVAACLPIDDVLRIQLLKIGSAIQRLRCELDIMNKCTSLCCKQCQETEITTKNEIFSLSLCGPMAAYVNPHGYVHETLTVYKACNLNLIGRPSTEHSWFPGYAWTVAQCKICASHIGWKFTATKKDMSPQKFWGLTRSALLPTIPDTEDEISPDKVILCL
T1 sequence (Q16531 2-1140 partner limits assumed): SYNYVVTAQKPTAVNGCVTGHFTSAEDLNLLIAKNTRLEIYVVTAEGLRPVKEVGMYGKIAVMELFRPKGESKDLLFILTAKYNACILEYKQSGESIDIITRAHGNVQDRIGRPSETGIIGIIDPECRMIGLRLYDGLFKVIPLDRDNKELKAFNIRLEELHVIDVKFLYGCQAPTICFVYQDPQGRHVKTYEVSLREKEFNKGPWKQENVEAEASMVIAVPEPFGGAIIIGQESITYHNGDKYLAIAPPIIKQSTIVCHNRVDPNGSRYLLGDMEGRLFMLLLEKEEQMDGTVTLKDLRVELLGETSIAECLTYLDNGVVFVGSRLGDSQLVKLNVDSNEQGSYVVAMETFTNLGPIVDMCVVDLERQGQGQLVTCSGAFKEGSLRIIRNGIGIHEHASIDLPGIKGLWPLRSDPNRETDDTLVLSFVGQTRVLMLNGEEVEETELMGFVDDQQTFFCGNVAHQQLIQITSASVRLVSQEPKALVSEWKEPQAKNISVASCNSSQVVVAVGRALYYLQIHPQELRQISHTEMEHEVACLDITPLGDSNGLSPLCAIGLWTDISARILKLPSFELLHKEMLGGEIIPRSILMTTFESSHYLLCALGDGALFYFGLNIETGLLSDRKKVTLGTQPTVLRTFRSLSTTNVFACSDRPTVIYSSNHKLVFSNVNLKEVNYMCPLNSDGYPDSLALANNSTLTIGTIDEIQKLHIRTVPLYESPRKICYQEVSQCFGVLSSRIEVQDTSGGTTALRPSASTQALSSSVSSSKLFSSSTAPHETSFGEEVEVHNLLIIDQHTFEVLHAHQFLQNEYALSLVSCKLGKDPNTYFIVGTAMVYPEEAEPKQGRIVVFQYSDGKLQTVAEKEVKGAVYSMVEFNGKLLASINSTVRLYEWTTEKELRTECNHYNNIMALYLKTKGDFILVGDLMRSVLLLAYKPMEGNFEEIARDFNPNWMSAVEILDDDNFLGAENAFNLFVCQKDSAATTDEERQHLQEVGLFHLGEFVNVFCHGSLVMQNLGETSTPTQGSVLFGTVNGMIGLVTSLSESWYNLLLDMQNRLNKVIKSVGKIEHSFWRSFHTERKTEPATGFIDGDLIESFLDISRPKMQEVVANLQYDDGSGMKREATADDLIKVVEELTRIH
In short: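 CAL-51 cells treated 6 h with compound (30 μM to 0.1 nM), fixed, immunostained for GSPT1 with DAPI and phalloidin counterstains, imaged by high-content microscopy. Mean per-cell GSPT1 intensity normalized to controls; DC50 by non-linear regression.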

Chain of CRBN-DDB1 (Q96SW2 whole entry): as the sequence (Q96SW2 whole entry) above
Chain of CRBN-DDB1 (Q16531 whole entry partner): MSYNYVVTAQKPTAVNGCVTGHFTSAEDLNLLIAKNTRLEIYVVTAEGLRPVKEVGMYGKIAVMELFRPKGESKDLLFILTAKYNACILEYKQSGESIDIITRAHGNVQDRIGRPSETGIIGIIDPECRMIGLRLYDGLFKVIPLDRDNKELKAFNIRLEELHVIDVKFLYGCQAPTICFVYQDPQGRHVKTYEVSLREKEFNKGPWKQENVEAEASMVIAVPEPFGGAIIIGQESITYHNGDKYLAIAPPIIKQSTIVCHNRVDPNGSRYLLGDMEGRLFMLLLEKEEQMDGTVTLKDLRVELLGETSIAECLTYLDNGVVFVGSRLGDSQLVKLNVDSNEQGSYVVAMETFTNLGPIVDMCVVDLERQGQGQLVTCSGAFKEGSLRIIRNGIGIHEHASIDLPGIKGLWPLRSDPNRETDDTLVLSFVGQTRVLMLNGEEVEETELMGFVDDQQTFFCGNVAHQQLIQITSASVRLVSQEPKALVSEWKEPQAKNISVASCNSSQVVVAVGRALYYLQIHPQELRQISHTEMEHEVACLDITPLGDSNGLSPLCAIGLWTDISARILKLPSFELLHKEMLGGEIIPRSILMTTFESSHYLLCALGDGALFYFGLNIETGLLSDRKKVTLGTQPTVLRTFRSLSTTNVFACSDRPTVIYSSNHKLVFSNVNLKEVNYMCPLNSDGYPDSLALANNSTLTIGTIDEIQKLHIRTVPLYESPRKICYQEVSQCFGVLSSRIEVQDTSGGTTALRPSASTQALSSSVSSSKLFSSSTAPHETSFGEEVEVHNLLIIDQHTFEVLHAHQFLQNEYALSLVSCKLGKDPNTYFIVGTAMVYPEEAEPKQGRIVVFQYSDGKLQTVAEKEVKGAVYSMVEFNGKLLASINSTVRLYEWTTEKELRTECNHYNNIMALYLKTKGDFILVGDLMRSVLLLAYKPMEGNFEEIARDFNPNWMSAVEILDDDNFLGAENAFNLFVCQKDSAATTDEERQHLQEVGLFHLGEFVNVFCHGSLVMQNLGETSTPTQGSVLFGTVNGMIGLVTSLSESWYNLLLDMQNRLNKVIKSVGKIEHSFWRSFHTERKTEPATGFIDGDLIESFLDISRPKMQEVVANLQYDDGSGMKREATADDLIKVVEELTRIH

Structure (SMILES)	IC50 (CRBN-DDB1) [nM]	DC50 (GSPT1) [nM]
CC(C)CNC(=O)OC1CN(c2cc(F)c(C3CCC(=O)NC3=O)c(F)c2)C1 (stereo not shown) [Compound 132, 1-(4-(2,6-dioxopiperidin-3-yl)-3,5-difluorophenyl)azetidin-3-yl isobutylcarbamate]	100 to 1000	> 300
CO[C@H]1CC[C@H](NC(=O)OC2CN(c3cc(F)c(C4CCC(=O)NC4=O)c(F)c3)C2)CC1 (stereo partly drawn) [Compound 133, 1-(4-(2,6-dioxopiperidin-3-yl)-3,5-difluorophenyl)azetidin-3-yl ((1R,4R)-4-methoxycyclohexyl)carbamate]	100 to 1000	30 to 300
O=C1CCC(c2c(F)cc(N3CC(OC(=O)NC4CCCCCC4)C3)cc2F)C(=O)N1 (stereo not shown) [Compound 134, 1-(4-(2,6-dioxopiperidin-3-yl)-3,5-difluorophenyl)azetidin-3-yl cycloheptylcarbamate]	≤ 100	≤ 30
CC1(NC(=O)OC2CN(c3cc(F)c(C4CCC(=O)NC4=O)c(F)c3)C2)CCCCC1 (stereo not shown) [Compound 135, 1-(4-(2,6-dioxopiperidin-3-yl)-3,5-difluorophenyl)azetidin-3-yl (1-methylcyclohexyl)carbamate]	≤ 100	≤ 30
O=C1CCC(c2c(F)cc(N3CC(OC(=O)NCc4ccccc4)C3)cc2F)C(=O)N1 (stereo not shown) [Compound 137, 1-(4-(2,6-dioxopiperidin-3-yl)-3,5-difluorophenyl)azetidin-3-yl benzylcarbamate]	≤ 100	30 to 300
O=C1CCC(c2c(F)cc(N3CC(OC(=O)NCC4CCCC4)C3)cc2F)C(=O)N1 (stereo not shown) [Compound 139, 1-(4-(2,6-dioxopiperidin-3-yl)-3,5-difluorophenyl)azetidin-3-yl (cyclopentylmethyl)carbamate]	≤ 100	≤ 30
O=C1CCC(c2c(F)cc(N3CC(OC(=O)N[C@@H]4CC5CCC4C5)C3)cc2F)C(=O)N1 (stereo partly drawn) [Compound 140, 1-(4-(2,6-dioxopiperidin-3-yl)-3,5-difluorophenyl)azetidin-3-yl(2R)-bicyclo[2.2.1]heptan-2-ylcarbamate]	≤ 100	30 to 300
O=C1CCC(c2c(F)cc(N3CC(OC(=O)NCC4COC4)C3)cc2F)C(=O)N1 (stereo not shown) [Compound 141, 1-(4-(2,6-dioxopiperidin-3-yl)-3,5-difluorophenyl) azetidin-3-yl (oxetan-3-ylmethyl)carbamate]	≤ 100	> 300
O=C1CCC(c2c(F)cc(N3CC(OC(=O)N4CCC(F)(F)CC4)C3)cc2F)C(=O)N1 (stereo not shown) [Compound 142, 1-(4-(2,6-dioxopiperidin-3-yl)-3,5-difluorophenyl)azetidin-3-yl 4,4-difluoropiperidine-1-carboxylate]	100 to 1000	> 300

Second part, the compound after the results:

IC50 (CRBN-DDB1) [nM]	DC50 (GSPT1) [nM]	Structure (SMILES)
≤ 100	≤ 30	O=C1CCC(c2c(F)cc(N3CC(OC(=O)NC4Cc5ccccc5C4)C3)cc2F)C(=O)N1 (stereo not shown) [Compound 136, 1-(4-(2,6-dioxopiperidin-3-yl)-3,5-difluorophenyl)azetidin-3-yl (2,3-dihydro-1H-inden-2-yl)carbamate]
≤ 100	≤ 30	O=C1CCC(c2c(F)cc(N3CC(OC(=O)NC4CC5(CCC5)C4)C3)cc2F)C(=O)N1 (stereo not shown) [Compound 138, 1-(4-(2,6-dioxopiperidin-3-yl)-3,5-difluorophenyl)azetidin-3-yl spiro[3.3]heptan-2-ylcarbamate]
100 to 1000	> 300	O=C1CCC(c2c(F)cc(N3CC(OC(=O)N4CCCCC4)C3)cc2F)C(=O)N1 (stereo not shown) [Compound 143, 1-(4-(2,6-dioxopiperidin-3-yl)-3,5-difluorophenyl)azetidin-3-yl piperidine-1-carboxylate]
100 to 1000	> 300	O=C1CCC(c2c(F)cc(N3CC(OC(=O)N4CCCC4)C3)cc2F)C(=O)N1 (stereo not shown) [Compound 144, 1-(4-(2,6-dioxopiperidin-3-yl)-3,5-difluorophenyl)azetidin-3-yl pyrrolidine-1-carboxylate]
≤ 100	30 to 300	Cc1ccc(N(C)C(=O)OC2CN(c3cc(F)c(C4CCC(=O)NC4=O)c(F)c3)C2)cc1Cl (stereo not shown) [Compound 145, 1-(4-(2,6-dioxopiperidin-3-yl)-3,5-difluorophenyl)azetidin-3-yl(3-chloro-4-methylphenyl)(methyl) carbamate]
